Measurements: doi:10.1101/2023.03.24.534094v2 (biorxiv, 2023)
Read-outs that look alike come from different tables or passages of the source.

What was measured:
Assay in all cases: biochemical
GPRK5 = GPRK5 (Homo sapiens, UniProt P34947)
AKT3 = AKT3 (Homo sapiens, UniProt Q9Y243)
CDK2 = CDK2 (Homo sapiens, UniProt P24941)
EpHA5 = EpHA5 (Homo sapiens, UniProt P54756)
MAP2K7 = target: T1, MAP2K7 (Homo sapiens, UniProt O14733)
T1 sequence (O14733 1-419): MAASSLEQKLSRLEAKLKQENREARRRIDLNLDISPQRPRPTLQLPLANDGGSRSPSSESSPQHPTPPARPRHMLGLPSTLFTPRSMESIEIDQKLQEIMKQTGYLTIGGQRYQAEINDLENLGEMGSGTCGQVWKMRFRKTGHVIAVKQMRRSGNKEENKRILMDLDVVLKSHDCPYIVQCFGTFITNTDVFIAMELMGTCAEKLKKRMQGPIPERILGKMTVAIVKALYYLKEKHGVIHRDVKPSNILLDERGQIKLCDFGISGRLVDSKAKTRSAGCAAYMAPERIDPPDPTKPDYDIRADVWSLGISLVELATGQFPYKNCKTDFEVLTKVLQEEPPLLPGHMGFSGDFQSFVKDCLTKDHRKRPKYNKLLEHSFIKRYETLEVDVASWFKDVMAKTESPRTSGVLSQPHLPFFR

CaMK1d = CaMK1d (Homo sapiens, UniProt Q8IU85)
NEK1 = target: T2, NEK1 (Homo sapiens, UniProt Q96PY6)
T2 sequence (Q96PY6 1-1258): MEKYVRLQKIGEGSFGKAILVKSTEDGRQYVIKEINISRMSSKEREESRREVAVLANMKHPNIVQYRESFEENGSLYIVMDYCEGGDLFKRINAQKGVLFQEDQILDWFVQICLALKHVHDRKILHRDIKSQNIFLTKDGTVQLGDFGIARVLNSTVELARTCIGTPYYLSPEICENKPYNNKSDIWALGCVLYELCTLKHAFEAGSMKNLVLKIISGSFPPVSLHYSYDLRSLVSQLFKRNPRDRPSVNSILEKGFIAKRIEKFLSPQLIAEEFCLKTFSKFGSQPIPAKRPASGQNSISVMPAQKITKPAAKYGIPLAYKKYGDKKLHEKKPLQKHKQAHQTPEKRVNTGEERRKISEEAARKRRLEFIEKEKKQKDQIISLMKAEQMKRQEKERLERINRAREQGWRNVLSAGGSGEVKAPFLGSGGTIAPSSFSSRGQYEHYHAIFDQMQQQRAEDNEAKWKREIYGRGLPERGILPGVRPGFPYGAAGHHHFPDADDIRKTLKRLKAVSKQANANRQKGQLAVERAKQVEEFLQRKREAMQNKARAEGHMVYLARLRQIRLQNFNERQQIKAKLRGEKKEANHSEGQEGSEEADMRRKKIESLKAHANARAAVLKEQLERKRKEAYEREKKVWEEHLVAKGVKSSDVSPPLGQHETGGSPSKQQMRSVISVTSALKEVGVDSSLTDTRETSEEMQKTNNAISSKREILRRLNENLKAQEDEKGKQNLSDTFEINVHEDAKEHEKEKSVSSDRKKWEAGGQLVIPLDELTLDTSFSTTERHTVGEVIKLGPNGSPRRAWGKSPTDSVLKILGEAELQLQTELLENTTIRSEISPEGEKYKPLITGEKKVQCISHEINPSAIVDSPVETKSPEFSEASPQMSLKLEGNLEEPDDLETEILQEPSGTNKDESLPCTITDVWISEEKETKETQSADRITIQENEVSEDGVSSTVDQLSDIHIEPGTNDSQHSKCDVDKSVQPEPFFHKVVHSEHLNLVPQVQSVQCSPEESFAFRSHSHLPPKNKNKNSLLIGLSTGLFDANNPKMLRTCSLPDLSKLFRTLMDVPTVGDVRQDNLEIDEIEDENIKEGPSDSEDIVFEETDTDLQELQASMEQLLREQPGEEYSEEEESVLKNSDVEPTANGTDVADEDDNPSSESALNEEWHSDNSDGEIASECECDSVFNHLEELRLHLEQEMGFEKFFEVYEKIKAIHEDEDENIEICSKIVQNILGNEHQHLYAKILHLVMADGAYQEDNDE

CaMK2b = CaMK2b (Homo sapiens, UniProt Q13554)
FECH = target: T3, FECH (Homo sapiens, UniProt P22830)
T3 sequence (P22830 1-423): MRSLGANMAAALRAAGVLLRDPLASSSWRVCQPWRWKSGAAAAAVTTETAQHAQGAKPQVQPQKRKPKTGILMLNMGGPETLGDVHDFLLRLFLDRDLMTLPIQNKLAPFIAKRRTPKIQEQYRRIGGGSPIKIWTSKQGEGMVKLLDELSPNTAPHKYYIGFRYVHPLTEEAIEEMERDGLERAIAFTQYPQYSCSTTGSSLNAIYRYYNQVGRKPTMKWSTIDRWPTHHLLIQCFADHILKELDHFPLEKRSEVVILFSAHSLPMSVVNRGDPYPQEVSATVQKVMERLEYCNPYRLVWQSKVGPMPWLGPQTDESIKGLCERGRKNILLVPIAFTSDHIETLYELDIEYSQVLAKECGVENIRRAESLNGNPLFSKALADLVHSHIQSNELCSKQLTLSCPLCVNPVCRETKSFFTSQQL

FGFR2 = FGFR2 (Homo sapiens, UniProt P21802)
MRCKa = MRCKa (Homo sapiens, UniProt Q5VT25)
Chain of MRCKa (Q5VT25 whole entry): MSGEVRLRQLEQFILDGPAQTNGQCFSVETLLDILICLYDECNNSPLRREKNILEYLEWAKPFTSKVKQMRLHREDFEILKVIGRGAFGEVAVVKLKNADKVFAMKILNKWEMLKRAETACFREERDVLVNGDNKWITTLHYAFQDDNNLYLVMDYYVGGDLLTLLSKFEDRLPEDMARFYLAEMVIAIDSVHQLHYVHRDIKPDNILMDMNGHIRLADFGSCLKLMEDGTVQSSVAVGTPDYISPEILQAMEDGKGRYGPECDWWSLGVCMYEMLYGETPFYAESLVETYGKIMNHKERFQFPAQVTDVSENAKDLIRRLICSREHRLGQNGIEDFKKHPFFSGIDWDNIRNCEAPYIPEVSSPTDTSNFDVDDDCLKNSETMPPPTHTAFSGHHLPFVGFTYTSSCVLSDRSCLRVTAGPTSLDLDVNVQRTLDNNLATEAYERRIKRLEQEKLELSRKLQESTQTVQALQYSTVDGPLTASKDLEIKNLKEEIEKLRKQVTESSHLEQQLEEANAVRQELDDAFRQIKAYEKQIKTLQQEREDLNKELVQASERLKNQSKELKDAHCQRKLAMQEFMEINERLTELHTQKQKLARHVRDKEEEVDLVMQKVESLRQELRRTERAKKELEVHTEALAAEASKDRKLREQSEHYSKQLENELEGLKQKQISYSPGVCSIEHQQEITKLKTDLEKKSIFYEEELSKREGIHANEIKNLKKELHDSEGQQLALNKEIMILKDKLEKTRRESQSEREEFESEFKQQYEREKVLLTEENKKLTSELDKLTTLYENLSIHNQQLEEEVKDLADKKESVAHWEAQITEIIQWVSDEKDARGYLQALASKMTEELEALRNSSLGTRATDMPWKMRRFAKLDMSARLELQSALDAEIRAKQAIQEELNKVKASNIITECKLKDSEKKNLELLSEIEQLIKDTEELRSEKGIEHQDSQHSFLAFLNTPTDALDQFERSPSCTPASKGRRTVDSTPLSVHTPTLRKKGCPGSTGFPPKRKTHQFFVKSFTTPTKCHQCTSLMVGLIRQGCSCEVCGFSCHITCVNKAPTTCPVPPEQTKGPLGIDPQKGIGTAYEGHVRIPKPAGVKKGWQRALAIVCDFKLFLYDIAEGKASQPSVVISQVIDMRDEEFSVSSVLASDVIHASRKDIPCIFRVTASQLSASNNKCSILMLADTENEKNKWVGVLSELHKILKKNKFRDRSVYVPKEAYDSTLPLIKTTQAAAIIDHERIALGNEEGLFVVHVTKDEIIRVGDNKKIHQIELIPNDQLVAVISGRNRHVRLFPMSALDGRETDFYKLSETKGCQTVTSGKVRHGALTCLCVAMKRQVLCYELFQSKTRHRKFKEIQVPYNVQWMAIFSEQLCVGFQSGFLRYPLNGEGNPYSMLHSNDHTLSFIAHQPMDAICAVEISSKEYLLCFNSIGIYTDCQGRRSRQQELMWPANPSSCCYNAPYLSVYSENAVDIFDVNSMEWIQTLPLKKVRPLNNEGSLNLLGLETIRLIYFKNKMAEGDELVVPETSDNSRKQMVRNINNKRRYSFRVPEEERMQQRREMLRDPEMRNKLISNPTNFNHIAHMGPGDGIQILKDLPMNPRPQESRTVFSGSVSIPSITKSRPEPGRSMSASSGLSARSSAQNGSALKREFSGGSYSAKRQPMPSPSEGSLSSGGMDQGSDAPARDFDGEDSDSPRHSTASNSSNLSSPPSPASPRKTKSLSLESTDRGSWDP

Chain of CaMK1d (Q8IU85 whole entry): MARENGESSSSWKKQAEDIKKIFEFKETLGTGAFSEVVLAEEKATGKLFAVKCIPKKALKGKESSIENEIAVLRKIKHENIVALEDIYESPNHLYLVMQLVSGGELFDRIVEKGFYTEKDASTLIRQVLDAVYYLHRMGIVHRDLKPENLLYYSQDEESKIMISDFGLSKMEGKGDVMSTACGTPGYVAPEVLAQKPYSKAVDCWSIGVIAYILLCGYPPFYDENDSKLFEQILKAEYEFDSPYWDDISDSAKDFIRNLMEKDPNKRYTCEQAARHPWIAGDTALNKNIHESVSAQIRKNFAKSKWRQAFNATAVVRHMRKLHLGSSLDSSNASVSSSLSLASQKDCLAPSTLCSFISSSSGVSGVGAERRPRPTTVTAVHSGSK
Chain of GPRK5 (P34947 whole entry): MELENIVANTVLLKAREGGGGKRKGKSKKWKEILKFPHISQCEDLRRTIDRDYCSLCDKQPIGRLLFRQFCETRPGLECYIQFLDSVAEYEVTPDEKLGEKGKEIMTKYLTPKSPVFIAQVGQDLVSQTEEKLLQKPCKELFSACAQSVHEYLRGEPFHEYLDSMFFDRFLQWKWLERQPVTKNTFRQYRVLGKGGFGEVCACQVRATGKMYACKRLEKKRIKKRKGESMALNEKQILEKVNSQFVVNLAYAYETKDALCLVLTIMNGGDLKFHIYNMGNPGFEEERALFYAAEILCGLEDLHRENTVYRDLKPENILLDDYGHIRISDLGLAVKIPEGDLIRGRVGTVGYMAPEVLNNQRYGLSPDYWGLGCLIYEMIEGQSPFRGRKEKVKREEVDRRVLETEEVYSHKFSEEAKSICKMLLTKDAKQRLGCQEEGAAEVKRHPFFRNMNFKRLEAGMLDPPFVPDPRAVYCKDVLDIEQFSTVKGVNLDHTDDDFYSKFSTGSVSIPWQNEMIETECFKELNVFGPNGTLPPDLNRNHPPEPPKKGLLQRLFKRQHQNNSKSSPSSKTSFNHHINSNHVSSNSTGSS
Chain of FGFR2 (P21802 whole entry): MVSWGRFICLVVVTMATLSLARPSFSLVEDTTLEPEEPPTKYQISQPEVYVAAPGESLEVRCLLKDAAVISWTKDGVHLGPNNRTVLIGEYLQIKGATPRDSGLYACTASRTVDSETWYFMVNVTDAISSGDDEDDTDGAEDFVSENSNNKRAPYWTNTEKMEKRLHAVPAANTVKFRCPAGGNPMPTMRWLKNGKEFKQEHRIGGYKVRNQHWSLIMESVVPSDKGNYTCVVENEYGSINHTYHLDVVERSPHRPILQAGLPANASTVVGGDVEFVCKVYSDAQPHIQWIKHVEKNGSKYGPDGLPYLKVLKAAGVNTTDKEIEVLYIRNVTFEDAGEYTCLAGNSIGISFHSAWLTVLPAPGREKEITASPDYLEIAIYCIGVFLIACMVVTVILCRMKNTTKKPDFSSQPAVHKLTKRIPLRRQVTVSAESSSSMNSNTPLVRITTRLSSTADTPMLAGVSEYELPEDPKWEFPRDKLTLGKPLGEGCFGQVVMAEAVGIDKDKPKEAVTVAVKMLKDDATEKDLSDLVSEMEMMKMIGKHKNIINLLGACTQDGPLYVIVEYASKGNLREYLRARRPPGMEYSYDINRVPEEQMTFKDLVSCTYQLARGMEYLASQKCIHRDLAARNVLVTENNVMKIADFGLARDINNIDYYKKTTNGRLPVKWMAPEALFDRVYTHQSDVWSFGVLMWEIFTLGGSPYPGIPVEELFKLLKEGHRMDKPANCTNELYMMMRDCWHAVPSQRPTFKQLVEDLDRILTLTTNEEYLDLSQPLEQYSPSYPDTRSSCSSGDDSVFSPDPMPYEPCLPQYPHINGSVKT
Chain of AKT3 (Q9Y243 whole entry): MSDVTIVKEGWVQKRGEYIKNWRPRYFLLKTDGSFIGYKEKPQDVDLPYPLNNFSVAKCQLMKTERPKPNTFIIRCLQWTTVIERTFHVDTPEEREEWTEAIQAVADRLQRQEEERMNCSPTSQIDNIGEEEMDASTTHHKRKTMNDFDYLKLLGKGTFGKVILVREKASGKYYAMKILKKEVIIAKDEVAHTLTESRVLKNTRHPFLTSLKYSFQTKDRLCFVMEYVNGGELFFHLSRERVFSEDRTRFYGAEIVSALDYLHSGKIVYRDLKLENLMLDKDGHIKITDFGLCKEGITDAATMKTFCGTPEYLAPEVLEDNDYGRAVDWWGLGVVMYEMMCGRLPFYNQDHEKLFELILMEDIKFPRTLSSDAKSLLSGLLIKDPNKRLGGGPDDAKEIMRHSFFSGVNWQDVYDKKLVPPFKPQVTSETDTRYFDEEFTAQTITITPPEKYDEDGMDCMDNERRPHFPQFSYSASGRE
Chain of EpHA5 (P54756 whole entry): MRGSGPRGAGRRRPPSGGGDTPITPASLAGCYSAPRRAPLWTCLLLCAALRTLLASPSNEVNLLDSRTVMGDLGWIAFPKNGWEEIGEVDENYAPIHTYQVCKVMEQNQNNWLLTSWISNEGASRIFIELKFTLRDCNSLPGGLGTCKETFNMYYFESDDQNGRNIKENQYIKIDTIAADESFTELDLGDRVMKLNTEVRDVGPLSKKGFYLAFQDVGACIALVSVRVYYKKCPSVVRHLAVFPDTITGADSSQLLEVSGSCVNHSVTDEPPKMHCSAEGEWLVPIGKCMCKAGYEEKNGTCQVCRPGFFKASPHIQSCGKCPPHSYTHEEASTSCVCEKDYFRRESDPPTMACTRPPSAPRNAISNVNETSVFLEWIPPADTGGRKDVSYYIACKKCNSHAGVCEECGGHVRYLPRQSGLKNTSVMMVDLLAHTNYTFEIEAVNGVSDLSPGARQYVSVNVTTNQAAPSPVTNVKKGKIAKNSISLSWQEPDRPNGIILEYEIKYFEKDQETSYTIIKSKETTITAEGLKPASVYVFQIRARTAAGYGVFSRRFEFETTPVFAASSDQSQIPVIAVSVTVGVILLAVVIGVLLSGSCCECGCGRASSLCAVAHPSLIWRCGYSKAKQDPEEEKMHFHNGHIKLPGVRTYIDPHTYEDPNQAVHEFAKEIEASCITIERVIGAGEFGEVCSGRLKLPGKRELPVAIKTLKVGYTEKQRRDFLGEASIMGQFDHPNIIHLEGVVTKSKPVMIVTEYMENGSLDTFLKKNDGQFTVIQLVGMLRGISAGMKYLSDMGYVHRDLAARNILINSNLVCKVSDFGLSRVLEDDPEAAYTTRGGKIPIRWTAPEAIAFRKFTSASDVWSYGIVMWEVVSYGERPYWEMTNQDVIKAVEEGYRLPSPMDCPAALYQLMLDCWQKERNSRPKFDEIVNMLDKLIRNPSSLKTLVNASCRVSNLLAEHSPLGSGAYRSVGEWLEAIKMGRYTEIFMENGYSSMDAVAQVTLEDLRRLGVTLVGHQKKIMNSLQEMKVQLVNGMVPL

CNc1ncc2cc(-c3cc(F)c(-c4cccc(C)n4)cc3F)c(=O)n(CCCCN)c2n1 [compound 12, 8-(4-Aminobutyl)-6-(2,5-difluoro-4-(6-methylpyridin-2-yl)phenyl)-2-(methylamino)pyrido[2,3-d]pyrimidin-7(8H)-one]
ΔTm at 10 µM (GPRK5; read-out: dTm 12): -0.4 °C | ΔTm at 10 µM (AKT3; read-out: dTm 12): 1.2 °C | ΔTm at 10 µM (CDK2; read-out: dTm 12): 1.1 °C | ΔTm at 10 µM (EpHA5; read-out: dTm 12): 3.2 °C | ΔTm at 10 µM (MAP2K7; read-out: dTm 12): 1.7 °C | ΔTm at 10 µM (CaMK1d; read-out: dTm 12): 3.1 °C | ΔTm at 10 µM (NEK1; read-out: dTm 12): -0.4 °C | ΔTm at 10 µM (CaMK2b; read-out: dTm 12): -0.4 °C | ΔTm at 10 µM (FECH; read-out: dTm 12): -0.6 °C | ΔTm at 10 µM (FGFR2; read-out: dTm 12): 1.1 °C | ΔTm at 10 µM (MRCKa; read-out: dTm 12): -0.8 °C

CNc1ncc2cc(-c3cc(C(F)(F)F)ccc3Cl)c(=O)n(CCCCN)c2n1 [compound 9, 8-(4-Aminobutyl)-6-(2-chloro-5-(trifluoromethyl)phenyl)-2-(methylamino)pyrido[2,3-d]pyrimidin-7(8H)-one]
ΔTm at 10 µM (GPRK5; read-out: dTm 9): 0.3 °C | ΔTm at 10 µM (AKT3; read-out: dTm 9): 0 °C | ΔTm at 10 µM (CDK2; read-out: dTm 9): 0.3 °C | ΔTm at 10 µM (EpHA5; read-out: dTm 9): 2.6 °C | ΔTm at 10 µM (MAP2K7; read-out: dTm 9): 0.4 °C | ΔTm at 10 µM (CaMK1d; read-out: dTm 9): 2.3 °C | ΔTm at 10 µM (NEK1; read-out: dTm 9): 0.1 °C | ΔTm at 10 µM (CaMK2b; read-out: dTm 9): 0.1 °C | ΔTm at 10 µM (FECH; read-out: dTm 9): -1.7 °C | ΔTm at 10 µM (FGFR2; read-out: dTm 9): 2.1 °C | ΔTm at 10 µM (MRCKa; read-out: dTm 9): -0.5 °C

CNc1ncc2cc(-c3cc(Cl)ccc3Cl)c(=O)n(CCCCN)c2n1 [compound 8, 8-(4-Aminobutyl)-6-(2,5-dichlorophenyl)-2-(methylamino)pyrido[2,3-d]pyrimidin-7(8H)-one]
ΔTm at 10 µM (GPRK5; read-out: dTm 8): 0.6 °C | ΔTm at 10 µM (AKT3; read-out: dTm 8): 0 °C | ΔTm at 10 µM (CDK2; read-out: dTm 8): 0.6 °C | ΔTm at 10 µM (EpHA5; read-out: dTm 8): 5.4 °C | ΔTm at 10 µM (MAP2K7; read-out: dTm 8): 0.6 °C | ΔTm at 10 µM (CaMK1d; read-out: dTm 8): 2.4 °C | ΔTm at 10 µM (NEK1; read-out: dTm 8): 0.1 °C | ΔTm at 10 µM (CaMK2b; read-out: dTm 8): 0.2 °C | ΔTm at 10 µM (FECH; read-out: dTm 8): -1.7 °C | ΔTm at 10 µM (FGFR2; read-out: dTm 8): 4.1 °C | ΔTm at 10 µM (MRCKa; read-out: dTm 8): 0 °C

CNc1ncc2cc(-c3cc(Cl)ccc3Br)c(=O)n(CCCCN)c2n1 [compound 10, 8-(4-Aminobutyl)-6-(2-bromo-5-chlorophenyl)-2-(methylamino)pyrido[2,3-d]pyrimidin-7(8H)-one]
ΔTm at 10 µM (GPRK5; read-out: dTm 10): 0.6 °C | ΔTm at 10 µM (AKT3; read-out: dTm 10): -0.1 °C | ΔTm at 10 µM (CDK2; read-out: dTm 10): 0.6 °C | ΔTm at 10 µM (EpHA5; read-out: dTm 10): 5.5 °C | ΔTm at 10 µM (MAP2K7; read-out: dTm 10): 0.4 °C | ΔTm at 10 µM (CaMK1d; read-out: dTm 10): 2 °C | ΔTm at 10 µM (NEK1; read-out: dTm 10): 0.1 °C | ΔTm at 10 µM (CaMK2b; read-out: dTm 10): 0.3 °C | ΔTm at 10 µM (FECH; read-out: dTm 10): -1.7 °C | ΔTm at 10 µM (FGFR2; read-out: dTm 10): 3.3 °C | ΔTm at 10 µM (MRCKa; read-out: dTm 10): -0.2 °C

CNc1ncc2cc(-c3cc(Br)ccc3Br)c(=O)n(CCCCN)c2n1 [compound 11, 8-(4-Aminobutyl)-6-(2,5-dibromophenyl)-2-(methylamino)pyrido[2,3-d]pyrimidin-7(8H)-one]
ΔTm at 10 µM (GPRK5; read-out: dTm 11): 0.7 °C | ΔTm at 10 µM (AKT3; read-out: dTm 11): -0.1 °C | ΔTm at 10 µM (CDK2; read-out: dTm 11): 0.7 °C | ΔTm at 10 µM (EpHA5; read-out: dTm 11): 4.7 °C | ΔTm at 10 µM (MAP2K7; read-out: dTm 11): 0.5 °C | ΔTm at 10 µM (CaMK1d; read-out: dTm 11): 2.3 °C | ΔTm at 10 µM (NEK1; read-out: dTm 11): 0.1 °C | ΔTm at 10 µM (CaMK2b; read-out: dTm 11): 0.3 °C | ΔTm at 10 µM (FECH; read-out: dTm 11): -1.6 °C | ΔTm at 10 µM (FGFR2; read-out: dTm 11): 3.4 °C | ΔTm at 10 µM (MRCKa; read-out: dTm 11): -0.2 °C
